The values that follow come from patent publication US20100022559A1, “BISOXIMES AS FUNGICIDES” (BAYER CROPSCIENCE AG, priority 2006, published 2010).

Structures are written as SMILES.

A short description of the first series: logP determination by HPLC on a reversed-phase column (C 18), EEC Directive 79/831 Annex V.A8. Format: physicochemical. Particulars: [a] acidic range, pH 2.3, 0.1% aqueous phosphoric acid and acetonitrile. As to the method: The stated logP values were determined in accordance with EEC Directive 79/831 Annex V.A8 by HPLC (high performance liquid chromatography) on a reversed-phase column (C 18). Temperature: 43° C.
As to `C/C(=N\OCC(C)CON)c1cc(C)cc(C)n1` (racemic) [XII-9], the logP is 0.49^[a].

The same series, now with this note: [b] LC-MS, acidic range, pH 2.7, 0.1% aqueous formic acid and acetonitrile.
Regarding `C/C(=N\OCC(C)CON)c1cc(C)cc(C)n1` (racemic) [XII-9], the logP was 0.49^[b].

The same series, now with this note: method marked [a] in Table 1.
For the compound `Cc1cccc(C(=NOCC2(CON=C(c3cccc(C)n3)C3CC3)CC(c3ccccc3Cl)=NO2)C2CC2)n1` (stereo not drawn) [compound 648], the logP is 4.46^[a].

With `CC(=NOCC(C)(C)CON=C(C)c1cccc(-c2ccc(C(C)(C)C)cc2)n1)c1cccc(-c2ccc(C(C)(C)C)cc2)n1` [compound 580], the logP was 7.36^[a]. The same measure, in the same setting: under `COc1ccc(-c2cccc(C(C)=NOCC(C)(C)CON=C(C)c3cccc(-c4ccc(OC)cc4)n3)n2)cc1` [compound 579] stands 7.36^[a].

The same series, now with this note: method marked [b] in Table 1.
For `CC(=NOC(C)C(C)C(C)ON=C(C)c1cccc(C)n1)c1cccc(C)n1` (mixture of isomers) [Compound 743], the logP is 4.90^[b]. Same read-out and setting: under `C=C(CON=C(C)c1cccc(C)n1)CON=C(C)c1sc(C)nc1C` (single isomer, unassigned) [compound 545] stands 3.58^[b] (isomer B); under `CCC1=NOC(CON=C(CC)c2ccc(C)cn2)(CON=C(CC)c2cccc(C)n2)C1` (racemic) [compound 607], 4.04^[b]. Same read-out and setting: to `CCC(CON=C(C)c1cccc(C)n1)CON=C(C)c1cccc(C)n1` (stereo not drawn) [Compound 677] belongs 4.38^[b]; to `CCC(CON=C(C)c1cc(C)cc(C)n1)CON=C(C)c1cc(C)cc(C)n1` (stereo not drawn) [Compound 679], 2.61^[b].

On to `CCC(=NOCC1(CON=C(CC)c2cccc(C)n2)CC(C)=NO1)c1cccc(C)n1` (stereo not drawn) [compound 605], for which the logP is 3.42^[b]. On the same count and under the same terms, under `N/C(=N\OC/C=C/CO/N=C(\N)c1ncc(F)cc1F)c1ncc(F)cc1F` [compound 723] stands 2.42^[b].

Staying with this series, now noted: method marked [c] in Table 1.
With `CCC(CON=C(C)c1cccc(C)n1)CON=C(C)c1cccc(C)n1` (stereo not drawn) [Compound 677], the logP was 5.97^[c].

The series is the same for the next values; noted with them: method marker [a] (footnote not shown); isomer A / isomer B / isomer mixture as noted in the cell.
Consider `CCC(=NOCCCON=C(CC)c1ccc(C)c(C)n1)c1ccc(C)c(C)n1` (mixture of isomers) [Compound 236], for which the logP is 3.80^[a]. As for `CC(=NOCCCON=C(C)c1cccc(CC(C)C)n1)c1cccc(CC(C)C)n1` [Compound 134], the logP is 7.36^[a].

Turning to `Cc1ccc(C(=NOCCCON=C(c2ccc(C)c(C)n2)C(C)C)C(C)C)nc1C` (mixture of isomers) [compound 237], the logP is 4.00^[a].

For `CC(=NOCC1(CON=C(C)c2cccc(C)n2)CCO1)c1ccccn1` (racemic) [compound 26], the logP was 2.29^[a]. Same read-out and setting: to `CCC(=NOCC(C)CON=C(CC)c1ncccc1C)c1ncccc1C` (single isomer, unassigned) [compound 100] belongs 3.58^[a] (isomer A); to `Cc1cccc(C(CC(C)C)=NOCCCON=C(CC(C)C)c2cccc(C)n2)n1` (single isomer, unassigned) [compound 114], 5.92^[a] (isomer A).

As for `CCC(=NOCCON=C(CC)c1cccc(C)n1)c1cccc(C)n1` (mixture of isomers) [compound 222], the logP is 3.77^[a]. Still for that read-out and setting: under `Cc1cccc(C(=NOCCCON=C(c2cccc(C)n2)C(C)C)C(C)C)n1` (single isomer, unassigned) [Compound 88] stands 5.52^[a] (isomer B). Same read-out and setting: under `Cc1cccnc1C(Cc1ccccc1)=NOCC(C)CON=C(Cc1ccccc1)c1ncccc1C` (single isomer, unassigned) [compound 109] stands 6.00^[a] (isomer B); under `CC(=NOCC(C)CON=C(C)c1nc(C)cs1)c1nc(C)cs1` (mixture of isomers) [compound 122], 4.98^[a].

Turning to `CC(=NOCC1(CON=C(C)c2cccc(C)n2)CO1)c1cccc(C)n1` (stereo not drawn) [compound 220], the logP is 2.24^[a].

Staying with this series, now noted: method marker [b]; isomer A / isomer B / isomer mixture as noted in the cell.
With `C=C(CON=C(C)c1cccs1)CON=C(C)c1nccs1` [compound 78], the logP was 4.31^[b]. On to `Cc1cc(C)nc(/C(N)=N/OCC(C)CO/N=C(\N)c2nc(C)cc(C)n2)n1` (stereo not drawn) [Compound 10], for which the logP was 1.81^[b].

For the compound `C=C(CON=C(C)c1cccc(C)n1)CON=C(N)c1nc(COC)c(C)c(COC)n1` [compound 183], the logP is 1.92^[b]. On to `C=C(CON=C(C)c1ccc(C)cn1)CON=C(C)c1cccc(C)n1` [compound 209], for which the logP is listed as 3.33^b].

With `CCC(=NOCC(C)CON=C(CC)c1nc(C)c(C)c(C)n1)c1nc(C)c(C)c(C)n1` (stereo not drawn) [Compound 254], the logP was 4.38^[b]. On the same count and under the same terms, under `C=C(CON=C(C)c1ccc(Br)nc1)CON=C(C)c1ccc(Br)nc1` [compound 151] stands 4.56^[b]; under `CC(=NOCC1(CON=C(C)c2cccc(C)n2)CCO1)c1ccccn1` (racemic) [compound 26], 2.43^[b]. As for `CC(=NOCCCCCCCON=C(C)c1cccc(C)n1)c1cccc(C)n1` [Compound 217], the logP was 5.37^[b]. The same measure, in the same setting: under `C=C(CON=C(C)c1nc(C)c(C)s1)CON=C(C)c1nc(C)c(C)s1` (single isomer, unassigned) [compound 69] stands 4.99^[b] (isomer A); under `Cc1cc(C)nc(/C(N)=N/OCO/N=C(\N)c2cc(C)cc(C)n2)c1` [compound 58], 1.87^[b]; under `Cc1cc(C)nc(/C(N)=N/OCO/N=C(\N)c2nc(C)cc(C)n2)n1` [compound 5], 1.49^[b]. The same measure, in the same setting: to `CC(=NOCC1(CON=C(C)c2cccc(C)n2)CC1)c1cccc(C)n1` [Compound 15] belongs 3.44^[b]; to `C=C(CON=C(C)c1ccc(C(F)(F)F)cn1)CON=C(C)c1cccc(C)n1` [Compound 66], 5.15^[b]; to `CC(=NOCCOCCON=C(C)c1cccc(C)n1)c1cccc(C)n1` [Compound 181], 1.84^[b]. Still for that read-out and setting: to `C=C(CON=C(C)c1cccc(C)n1)CON=C(C)c1ccc(C)c(C)n1` [Compound 204] belongs 3.10^[b]; to `C=C(CON=C(C)c1c(C)noc1C)CON=C(C)c1c(C)noc1C` [compound 25], 3,57^[b].

Staying with this series, now noted: reversed-phase HPLC column (C 18); HCO2H; HPLC reversed-phase column (C 18), 43° C.; read-out: logP (HCO2H).
As for `C/C(=N\OCC(=O)CO/N=C(\C)c1cccc(C)n1)c1cccc(C)n1` [(2E,9E)-2,10-bis(6-methylpyridin-2-yl)-4,8-dioxa-3,9-diazaundeca-2,9-dien-6-one], the chromatographic logP stood at 2.2.

Still in this series, the particulars now being: value marked [a].
As to `Cc1cccc(C(=NOCC(C)(C)CON=C(c2cccc(C)n2)C2CC2)C2CC2)n1` (single isomer, unassigned) [compound 282], the logP was 3.75^[a] (isomer A). On the same count and under the same terms, under `CCOC(=O)c1cccc(C(C)=NOCC(C)CON=C(C)c2cccc(C(=O)OCC)n2)n1` (stereo not drawn) [compound 258] stands 5.03^[a]; under `C=C(CON=C(C#N)c1cc(C)cc(C)n1)CON=C(C#N)c1cc(C)cc(C)n1` [compound 830], 4.50^[a]; under `CC[Si](CC)(CON=C(C)c1cccc(C)n1)CON=C(C)c1cccc(C)n1` [Compound 782], 6.65^[a]. Same read-out and setting: under `CC(=NOCC(C)CON=C(C)c1cc(C2CC2)cc(C)n1)c1cccc(C)n1` (stereo not drawn) [compound 845] stands 3.21^[a]; under `COc1cc(C)nc(C(C)=NOCC(C)(C)CON=C(C)c2cc(OC)cc(C)n2)c1` [Compound 840], 1.5^[a]; under `CC(=NOC[Si](C)(CON=C(C)c1cccc(C)n1)C(C)C)c1cccc(C)n1` [Compound 834], 6.72^[a].

Still in this series, the particulars now being: value marked [b].
As for `CC(=NOCCCCON=C(c1ccccc1)c1ncccc1C)c1cccc(C)n1` [compound 325], the logP was 3.89^[b]. Same read-out and setting: under `COc1c(Cl)cc(C(C)=NOCC(C)CON=C(C)c2cc(Cl)c(OC)c(C)n2)nc1C` (stereo not drawn) [compound 839] stands 7.36^[b]. Still for that read-out and setting: under `CC(=NOCC(C)CON=C(C)c1cccc(C)[n+]1[O-])c1cccc(C)[n+]1[O-]` (stereo not drawn) [compound 314] stands 1.69^[b].

Turning to `CC(=NOCCCCCCON=C(C)c1cccc(C)n1)c1ccc2c(c1)OCO2` [compound 390], the logP was 5.42^[b]. Consider `COc1ccc(C(C)=NOCCCCCCON=C(C)c2cccc(C)n2)cc1OC` [compound 392], for which the logP was 4.91^[b].

With `CC(=NOCCCCON=C(C)c1cccc(C)n1)c1cccnc1` [compound 384], the logP is 2.18^[b].

Turning to `CC(=NOCC(C)CON=C(c1cccc(C)n1)C1CC1)c1cccc(C)n1` (stereo not drawn) [Compound 429], the logP is 3.61^[b]. The same measure, in the same setting: under `CC[Si](CC)(CON=C(C)c1cccc(C)n1)CON=C(C)c1cccc(C)n1` [Compound 782] stands 6.65^[b]; under `CC(=NOCC(C)(C)CON=C(C)c1cccc(C)n1)c1ccc2c(c1)OCO2` [compound 412], 5.08^[b]; under `C=C(CON=C(C)c1cccc(C)n1)CON=C(c1cccc(C)n1)C(C)C` [Compound 359], 4.72^[b] (isomer B). Same read-out and setting: under `CC(=NOCC(C)(C)CON=C(C)c1ccc(Cl)s1)c1cccc(C)n1` [Compound 486] stands 5.84^[b]; under `CCC(=NOCC(C)CON=C(C)c1cccc(C)n1)c1cccc(C)n1` (stereo not drawn) [Compound 428], 4.51^[b]; under `CC(=NOCC(C)CON=C(C)c1nc(C)ccc1C)c1nc(C)ccc1C` (single isomer, unassigned) [Compound 267], 2.5^[b] (isomer B).

As to `CC(=NOC[Si](C)(CON=C(C)c1cccc(C)n1)C(C)C)c1cccc(C)n1` [Compound 834], the logP is 6.72^[b].

In the case of `C=C(CON=C(C)c1cnccn1)CON=C(C)c1cccc(C)n1` [compound 514], the logP was 2.98^[b]. Still for that read-out and setting: under `COc1cc(C)nc(C(C)=NOCCCCON=C(C)c2cccc(C)n2)c1` [compound 449] stands 3.11^[b]; under `CC(=NOCC(C)(C)CON=C(C)c1ccccc1Cl)c1cccc(C)n1` [compound 413], 5.59^[b]. In the case of `CC(=NOCCCCON=C(C)c1cccc(C)n1)c1cccc(Cl)c1` [compound 442], the logP was 5.54^[b].

The same series, now with this note: value marked [c].
For `COc1c(Cl)cc(C(C)=NOCC(C)CON=C(C)c2cc(Cl)c(OC)c(C)n2)nc1C` (stereo not drawn) [compound 839], the logP was 7.36^[c]. The same measure, in the same setting: under `CC[Si](CC)(CON=C(C)c1cccc(C)n1)CON=C(C)c1cccc(C)n1` [Compound 782] stands 7.01^[c]; under `CC(=NOCC(C)CON=C(C)c1cc(C2CC2)cc(C)n1)c1cccc(C)n1` (stereo not drawn) [compound 845], 6.40^[c].

Regarding `COc1cc(C)nc(C(C)=NOCC(C)(C)CON=C(C)c2cc(OC)cc(C)n2)c1` [Compound 840], the logP is 5.79^[c]. The same measure, in the same setting: to `CC(=NOC[Si](C)(CON=C(C)c1cccc(C)n1)C(C)C)c1cccc(C)n1` [Compound 834] belongs 7.35^[c]; to `CC(=NOC[Si](C)(C)CON=C(C)c1ccc(C)c(C)n1)c1ccc(C)c(C)n1` [Compound 870], 7.05^[c].
